Our source for the DC50 and Dmax values is US12539292B2, “BRM targeting compounds and associated methods of use” (Arvinas Operations, Inc., priority 2018, dated 2026).

Bounds are passed on as bounds.

For this assay, the target named is T1, BRM (Homo sapiens, UniProt P51531).
T1 construct: In-Cell Western Screen of BRM Degradation in SW1573 Cells; endogenous in cells; host or cells: SW1573
Briefly: In-cell Western screen of BRM degradation in SW1573 cells (Dmax and DC50). The format is cell-based. Particulars: BRM degradation, SW1573 cells; for DC50: read-out: DC50; for Dmax: when tested at the top concentration of between 0.3 and 10 μM, read-out: Dmax (%) (% degraded). Summed up: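 SW1573 cells were treated with compound overnight (18-20 h; final DMSO 0.1%), then fixed in 4% PFA, permeabilized with Triton X-100 and blocked. BRM was detected by in-cell Western using 800 nm anti-rabbit and 680 nm anti-mouse secondaries, and Dmax and DC50 were derived from the LI-COR Odyssey signal.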

T1 sequence (P51531 whole entry): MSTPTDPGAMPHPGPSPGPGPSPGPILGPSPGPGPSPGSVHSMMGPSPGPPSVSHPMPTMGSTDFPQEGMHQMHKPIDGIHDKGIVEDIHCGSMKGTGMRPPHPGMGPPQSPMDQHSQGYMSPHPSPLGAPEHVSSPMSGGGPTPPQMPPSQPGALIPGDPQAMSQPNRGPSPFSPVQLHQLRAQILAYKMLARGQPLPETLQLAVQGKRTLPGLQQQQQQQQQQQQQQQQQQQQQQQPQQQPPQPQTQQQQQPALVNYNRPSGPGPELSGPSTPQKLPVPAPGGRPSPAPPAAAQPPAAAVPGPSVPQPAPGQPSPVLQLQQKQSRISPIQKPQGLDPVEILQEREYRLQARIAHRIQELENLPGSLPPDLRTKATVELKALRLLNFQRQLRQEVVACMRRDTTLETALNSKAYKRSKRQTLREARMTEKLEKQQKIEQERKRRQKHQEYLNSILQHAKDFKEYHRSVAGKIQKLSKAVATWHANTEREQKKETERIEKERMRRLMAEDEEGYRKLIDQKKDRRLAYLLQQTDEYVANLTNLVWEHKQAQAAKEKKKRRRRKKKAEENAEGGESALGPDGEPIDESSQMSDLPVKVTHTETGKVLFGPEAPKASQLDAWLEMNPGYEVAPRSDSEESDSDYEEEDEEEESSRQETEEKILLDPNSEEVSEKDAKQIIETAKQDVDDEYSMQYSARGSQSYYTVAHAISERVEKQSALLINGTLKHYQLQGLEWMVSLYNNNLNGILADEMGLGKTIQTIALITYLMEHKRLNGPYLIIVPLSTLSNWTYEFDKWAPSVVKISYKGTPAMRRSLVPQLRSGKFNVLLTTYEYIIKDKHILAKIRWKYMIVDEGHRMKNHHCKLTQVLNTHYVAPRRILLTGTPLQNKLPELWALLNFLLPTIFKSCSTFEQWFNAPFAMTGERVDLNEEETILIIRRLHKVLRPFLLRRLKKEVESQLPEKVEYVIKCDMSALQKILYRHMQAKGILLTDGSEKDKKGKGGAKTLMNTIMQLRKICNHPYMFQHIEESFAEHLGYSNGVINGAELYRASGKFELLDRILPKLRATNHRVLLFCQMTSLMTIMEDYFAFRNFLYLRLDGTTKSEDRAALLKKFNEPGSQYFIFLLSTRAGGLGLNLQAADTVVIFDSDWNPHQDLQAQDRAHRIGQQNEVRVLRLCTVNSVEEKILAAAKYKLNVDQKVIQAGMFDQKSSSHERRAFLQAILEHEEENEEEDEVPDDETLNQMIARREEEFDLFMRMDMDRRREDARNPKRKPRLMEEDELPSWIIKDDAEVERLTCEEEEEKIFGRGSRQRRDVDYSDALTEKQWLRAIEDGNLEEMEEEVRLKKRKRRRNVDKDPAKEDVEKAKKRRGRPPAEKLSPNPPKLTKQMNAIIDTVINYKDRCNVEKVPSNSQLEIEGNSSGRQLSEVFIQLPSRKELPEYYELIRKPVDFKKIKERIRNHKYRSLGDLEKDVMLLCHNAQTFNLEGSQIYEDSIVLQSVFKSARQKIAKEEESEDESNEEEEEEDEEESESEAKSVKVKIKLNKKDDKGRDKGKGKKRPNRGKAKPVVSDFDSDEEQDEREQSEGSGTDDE

In the case of `Cc1ncsc1-c1ccc([C@H](C)NC(=O)[C@@H]2C[C@@H](O)CN2C(=O)[C@@H](c2cc(OCCN3CCC4(CC3)CC(OCCN3CCOC5(CCN(c6cc(-c7ccccc7O)nnc6N)CC5)C3)C4)no2)C(C)C)cc1` [compound 93, (2S,4R)-1-((R)-2-(3-(2-(2-(2-(9-(3-amino-6-(2-hydroxyphenyl)pyridazin-4-yl)-1-oxa-4,9-diazaspiro[5.5]undecan-4-yl)ethoxy)-7-azaspiro[3.5]nonan-7-yl)ethoxy)isoxazol-5-yl)-3-methylbutanoyl)-4-hydroxy-N-((S)-1-(4-(4-methylthiazol-5-yl)phenyl)ethyl)pyrrolidine-2-carboxamide], the 50% degradation concentration (DC50) – broadly, the concentration giving 50% degradation – was < 2.5 nM and the Dmax (commonly the largest share of the target that was removed) is > 75%.
Regarding `Cc1ncsc1-c1ccc([C@H](CO)NC(=O)[C@@H]2C[C@@H](O)CN2C(=O)[C@@H](c2cc(OCCN3CCN(CCOc4cc(N5C6CCC5CN(c5cc(-c7ccccc7O)nnc5N)C6)ccn4)CC3)no2)C(C)C)cc1` [compound 100, (2S,4R)-1-((2R)-2-(3-(2-(4-(2-((4-(3-(3-amino-6-(2-hydroxyphenyl)pyridazin-4-yl)-3,8-diazabicyclo[3.2.1]octan-8-yl)pyridin-2-yl)oxy)ethyl)piperazin-1-yl)ethoxy)isoxazol-5-yl)-3-methylbutanoyl)-4-hydroxy-N-((R)-2-hydroxy-1-(4-(4-methylthiazol-5-yl)phenyl)ethyl)pyrrolidine-2-carboxamide], the DC50 is < 2.5 nM and the Dmax is > 75%.
Taken in the same sequence, the figures for `Cc1ncsc1-c1ccc([C@@H](NC(=O)[C@@H]2C[C@@H](O)CN2C(=O)[C@@H](c2cc(OCCN3CCN(CCOc4cc(N5C6CCC5CN(c5cc(-c7ccccc7O)nnc5N)C6)ccn4)CC3)no2)C(C)C)C(F)F)cc1` [compound 102, (2S,4R)-1-((2R)-2-(3-(2-(4-(2-((4-(3-(3-amino-6-(2-hydroxyphenyl)pyridazin-4-yl)-3,8-diazabicyclo[3.2.1]octan-8-yl)pyridin-2-yl)oxy)ethyl)piperazin-1-yl)ethoxy)isoxazol-5-yl)-3-methylbutanoyl)-N-((R)-2,2-difluoro-1-(4-(4-methylthiazol-5-yl)phenyl)ethyl)-4-hydroxypyrrolidine-2-carboxamide] were < 2.5 nM and > 75%.
For `Cc1ncsc1-c1ccc([C@H](CN)NC(=O)[C@@H]2C[C@@H](O)CN2C(=O)[C@@H](c2cc(OCCN3CCN(CCOc4cc(N5C6CCC5CN(c5cc(-c7ccccc7O)nnc5N)C6)ccn4)CC3)no2)C(C)C)cc1` [compound 103, (2S,4R)-N-((R)-2-amino-1-(4-(4-methylthiazol-5-yl)phenyl)ethyl)-1-((2R)-2-(3-(2-(4-(2-((4-(3-(3-amino-6-(2-hydroxyphenyl)pyridazin-4-yl)-3,8-diazabicyclo[3.2.1]octan-8-yl)pyridin-2-yl)oxy)ethyl)piperazin-1-yl)ethoxy)isoxazol-5-yl)-3-methylbutanoyl)-4-hydroxypyrrolidine-2-carboxamide], in that order: 2.5 to 10 nM and > 75%.
With `Cc1ncsc1-c1ccc([C@H](C)NC(=O)[C@@H]2C[C@@H](O)CN2C(=O)[C@@H](c2cc(CCCOCCOCCOCCn3cc(-c4cc(-c5ccccc5O)nnc4N)cn3)no2)C(C)C)cc1` [compound 110, (2S,4R)-1-((R)-2-(3-(3-(2-(2-(2-(4-(3-amino-6-(2-hydroxyphenyl)pyridazin-4-yl)-1H-pyrazol-1-yl)ethoxy)ethoxy)ethoxy)propyl)isoxazol-5-yl)-3-methylbutanoyl)-4-hydroxy-N-((S)-1-(4-(4-methylthiazol-5-yl)phenyl)ethyl)pyrrolidine-2-carboxamide], the DC50 is < 2.5 nM and the Dmax was > 75%.
As for `Cc1ncsc1-c1ccc([C@H](C)NC(=O)[C@@H]2C[C@@H](O)CN2C(=O)[C@@H](c2cc(OCCN3CCN(CCC#CCn4cc(-c5cc(-c6ccccc6O)nnc5N)cn4)CC3)no2)C(C)C)cc1` [compound 112, (2S,4R)-1-((R)-2-(3-(2-(4-(5-(4-(3-amino-6-(2-hydroxyphenyl)pyridazin-4-yl)-1H-pyrazol-1-yl)pent-3-yn-1-yl)piperazin-1-yl)ethoxy)isoxazol-5-yl)-3-methylbutanoyl)-4-hydroxy-N-((S)-1-(4-(4-methylthiazol-5-yl)phenyl)ethyl)pyrrolidine-2-carboxamide], the half-maximal degradation concentration (DC50) was < 2.5 nM and the maximal degradation (Dmax) is > 75%.
`Cc1ncsc1-c1ccc([C@H](C)NC(=O)[C@@H]2C[C@@H](O)CN2C(=O)[C@@H](c2cc(OCCN3CCN(CC#CCn4cc(-c5cc(-c6ccccc6O)nnc5N)cn4)CC3)no2)C(C)C)cc1` [compound 113, (2S,4R)-1-((R)-2-(3-(2-(4-(4-(4-(3-amino-6-(2-hydroxyphenyl)pyridazin-4-yl)-1H-pyrazol-1-yl)but-2-yn-1-yl)piperazin-1-yl)ethoxy)isoxazol-5-yl)-3-methylbutanoyl)-4-hydroxy-N-((S)-1-(4-(4-methylthiazol-5-yl)phenyl)ethyl)pyrrolidine-2-carboxamide]: the 50% degradation concentration (DC50) is < 2.5 nM and the Dmax is > 75%.
For the molecule `Cc1ncsc1-c1ccc([C@H](C)NC(=O)[C@@H]2C[C@@H](O)CN2C(=O)[C@@H](c2onc(OCCN3CCN(CCOc4cc(N5C6CCC5CN(c5cc(-c7ccccc7O)nnc5N)C6)ccn4)CC3)c2F)C(C)C)cc1` [compound 114, (2S,4R)-1-((2R)-2-(3-(2-(4-(2-((4-(3-(3-amino-6-(2-hydroxyphenyl)pyridazin-4-yl)-3,8-diazabicyclo[3.2.1]octan-8-yl)pyridin-2-yl)oxy)ethyl)piperazin-1-yl)ethoxy)-4-fluoroisoxazol-5-yl)-3-methylbutanoyl)-4-hydroxy-N-((S)-1-(4-(4-methylthiazol-5-yl)phenyl)ethyl)pyrrolidine-2-carboxamide], the DC50 was < 2.5 nM and the maximal degradation (Dmax) was > 75%.
Take `CC(C)[C@@H](C(=O)N1C[C@H](O)C[C@H]1C(=O)N[C@@H](C)c1ccc(-c2nccn2C)cc1)c1cc(OCCN2CCN(CCOc3cc(N4C5CCC4CN(c4cc(-c6ccccc6O)nnc4N)C5)ccn3)CC2)no1` [compound 115, (2S,4R)-1-((2R)-2-(3-(2-(4-(2-((4-(3-(3-amino-6-(2-hydroxyphenyl)pyridazin-4-yl)-3,8-diazabicyclo[3.2.1]octan-8-yl)pyridin-2-yl)oxy)ethyl)piperazin-1-yl)ethoxy)isoxazol-5-yl)-3-methylbutanoyl)-4-hydroxy-N-((S)-1-(4-(1-methyl-1H-imidazol-2-yl)phenyl)ethyl)pyrrolidine-2-carboxamide]: the half-maximal degradation concentration (DC50) was > 30 nM and the Dmax is 50 to 75%.
`Cc1ncsc1-c1ccc([C@H](C)NC(=O)[C@@H]2C[C@@H](O)CN2C(=O)[C@@H](c2cc(OCCN3CCN(CCOc4cc(N5C6CCC5CN(c5cc(-c7ccccc7O)nnc5N)C6)ccn4)CC3)no2)C(C)C)cn1` [compound 116, (2S,4R)-1-((2R)-2-(3-(2-(4-(2-((4-(3-(3-amino-6-(2-hydroxyphenyl)pyridazin-4-yl)-3,8-diazabicyclo[3.2.1]octan-8-yl)pyridin-2-yl)oxy)ethyl)piperazin-1-yl)ethoxy)isoxazol-5-yl)-3-methylbutanoyl)-4-hydroxy-N-((S)-1-(6-(4-methylthiazol-5-yl)pyridin-3-yl)ethyl)pyrrolidine-2-carboxamide]: the half-maximal degradation concentration (DC50) is < 2.5 nM and the Dmax was > 75%.
With `Cc1ncoc1-c1ccc([C@H](C)NC(=O)[C@@H]2C[C@@H](O)CN2C(=O)[C@@H](c2cc(OCCN3CCN(CCOc4cc(N5C6CCC5CN(c5cc(-c7ccccc7O)nnc5N)C6)ccn4)CC3)no2)C(C)C)cn1` [compound 117, (2S,4R)-1-((2R)-2-(3-(2-(4-(2-((4-(3-(3-amino-6-(2-hydroxyphenyl)pyridazin-4-yl)-3,8-diazabicyclo[3.2.1]octan-8-yl)pyridin-2-yl)oxy)ethyl)piperazin-1-yl)ethoxy)isoxazol-5-yl)-3-methylbutanoyl)-4-hydroxy-N-((S)-1-(6-(4-methyloxazol-5-yl)pyridin-3-yl)ethyl)pyrrolidine-2-carboxamide], the 50% degradation concentration (DC50) was 2.5 to 10 nM and the Dmax was > 75%.
For the molecule `Cc1ncsc1-c1ccc(CNC(=O)[C@@H]2C[C@@H](O)CN2C(=O)[C@@H](c2cc(OCCN3CCN(CCOCCn4cc(-c5cc(-c6ccccc6O)nnc5N)cn4)CC3)no2)C(C)C)cc1` [compound 124, (2S,4R)-1-((R)-2-(3-(2-(4-(2-(2-(4-(3-amino-6-(2-hydroxyphenyl)pyridazin-4-yl)-1H-pyrazol-1-yl)ethoxy)ethyl)piperazin-1-yl)ethoxy)isoxazol-5-yl)-3-methylbutanoyl)-4-hydroxy-N-(4-(4-methylthiazol-5-yl)benzyl)pyrrolidine-2-carboxamide], the DC50 is > 30 nM and the Dmax was > 75%.
For the molecule `Cc1ncsc1-c1ccc(C2(NC(=O)[C@@H]3C[C@@H](O)CN3C(=O)[C@@H](c3cc(OCCN4CCN(CCOc5cc(N6C7CCC6CN(c6cc(-c8ccccc8O)nnc6N)C7)ccn5)CC4)no3)C(C)C)CN(C)C2)cc1` [compound 126, (2S,4R)-1-((2R)-2-(3-(2-(4-(2-((4-(3-(3-amino-6-(2-hydroxyphenyl)pyridazin-4-yl)-3,8-diazabicyclo[3.2.1]octan-8-yl)pyridin-2-yl)oxy)ethyl)piperazin-1-yl)ethoxy)isoxazol-5-yl)-3-methylbutanoyl)-4-hydroxy-N-(1-methyl-3-(4-(4-methylthiazol-5-yl)phenyl)azetidin-3-yl)pyrrolidine-2-carboxamide], the half-maximal degradation concentration (DC50) lay within 2.5 to 10 nM and the maximal degradation (Dmax) was > 75%.
